Source: patent US20260232758A1, “Low Cost Efficient Intracellular Delivery of Proteins and Nucleic Acids via Hydrophobic Ion Pairing” (Georgia Tech Research Corporation, priority 2023, published 2026)

Experiments:
[1] = cited from earlier work
red blood cells = assay: Hemolytic activity assay (hemoglobin release from red blood cells); assay type: cell-based
Protocol: FIG. 7 provides hemolytic activity for Cytochrome C, OA, SD, HIP CytC OA, and HIP CytC SD at 37° C. and 4° C. to show the influence of membrane stiffness on membrane interaction, in accordance with some embodiments of the present disclosure. 20 μM CytC was given to each group and the concentration of counterion given was consistent with the charge ratios used for delivery experiments. Washed red blood cells were diluted to 0.5% v/v in PBS and 1% v/v Triton X-100 was used as the positive control.
Washed red blood cells (RBC's) were diluted to a 5% v/v concentration in PBS. 100 μL of nanoparticles or treatment were incubated with 10 μL RBC's at 37° C. for 1 hour in a 96 well plate. After incubation with HIP treatment groups, the microplate reader was used to measure released hemoglobin from membrane disruption using 541 nm and subtracting background at 561 nm, then normalizing hemolytic activity to 5% Triton X-100. For imaging RBC's and NIH3T3/eGFP cells, an epifluorescent microscope (Zeiss Axio Observer Z1) with an 40× lens. […]

[2] = Dynamic light scattering: z-average size and polydispersity of HIP complexes; assay type: physicochemical; details: DLS
Protocol: Size and zeta potential were measured using dynamic light scattering (DLS) using Malvern Instruments Zetasizer NanoZS intensity mode with a 4 mW He—Ne laser with 633 nm wavelength to detect backscattering) (173° using 1× for DLS or 0.1× PBS for zeta potential at pH 7.4 solvent conditions and protein material selection. Z-average values were used for HIP complex size. Electrophoretic mobility was converted to zeta potential using the Smoluchowski approximation. Imaging of solutions was performed using an epifluorescence microscope (Zeiss Axio Observer Z1) using a 100× oil immersion lens. Transmission electron microscopy (TEM) grids were prepared using 10 μL sample on copper grids, letting the sample adhere for 5 minutes, washing in water for 30 seconds, staining with 1% phosphotungstic acid for 10 seconds, washing again for 30 seconds, and drying overnight. A JEOL 100 CX-II TEM was utilized to visualize samples.

c1ccc(CCNCc2ccccc2)cc1 [benethamine, N-benzyl-2-phenylthanamine]
Log P [1]: 3.6

CCCCC(CC)COC(=O)CC(C(=O)OCC(CC)CCCC)S(=O)(=O)[O-].[Na+] (stereo not drawn) [sodium docusate, reference compound]
Log P [1]: 5.2
hemolytic activity at reduced temperature (red blood cells; 4° C. compared with 37° C.): remained high

CytC: 12.4 kDa positively charged protein; induces apoptosis upon delivery to the mitochondrial membrane
relative hemolytic activity (red blood cells; 37° C., same concentration as in HIP CytC complexes): greater than 100%
polydispersity index (PDI) [2]: 0.542±0.17
z-average hydrodynamic diameter ([2]; 1× PBS pH 7.4): 729±460 nm
